Source: patent US20190211044A1, “Adjuvant Chemicals that Prevent Drug Tolerance and Persister Formation by Bacteria” (LifeUnit Inc., priority 2018, published 2019)

Columns and labels:
PA PAO1 biofilm = test: Inhibition of PA PAO1 biofilm (FIG. 1); assay type: cell-based, Pseudomonas aeruginosa; settings: compounds at 60 μM
PAO1 in residual biofilm [1] = test: cdG in PAO1 in residual biofilm after dispersal, by reporter strains, GFP/CFP fluorescence (Example 5); assay type: cell-based, Pseudomonas aeruginosa; settings: 40 μM for native and 85 μM for abx-promoted biofilm, dispersed 5-h at 37° C., M9 medium
PAO1 in residual biofilm [2] = test: cdG in PAO1 in residual biofilm after dispersal, by LC-MS (Example 4); assay type: cell-based, Pseudomonas aeruginosa; settings: PAO1 residual biofilm dispersed by agent, versus original native or abx-promoted biofilm
Method: PAO1 in residual biofilm dispersed by 3,5-[…] and 3,5-[…] was tested by Liquid Chromatography-Mass Spectrometry (LC-MS).

[3] = tested on: phosphodiesterase activity in biofilms of PA strains; assay type: cell-based; settings: bacteria incubated with agent 24-h to form biofilm, lysed, bis-NPP
PAO1 in residual biofilm [4] = test: cdG by reporter strains versus naturally dispersed PAO1 (Example 7); assay type: cell-based, Pseudomonas aeruginosa; settings: PAO1 in residual biofilm dispersed by agent
[5] = tested on: abx-promoted swarming P. aeruginosa; test: c-di-GMP in abx-promoted swarming P. aeruginosa, by LC-MS (Example 8); assay type: cell-based
Method: 3,5-DiMeDβM and 3,5-DiMeDβC was tested by Liquid Chromatography-Mass Spectrometry (LC-MS) to show the effect on c-di-GMP on abx-promoted swarming P. aeruginosa.

| Substance | biofilm inhibition (PA PAO1 biofilm) | cdG level in residual biofilm (reporter strains, GFP/CFP) (PAO1 in residual biofilm [1]) | cdG level in residual biofilm (LC-MS) (PAO1 in residual biofilm [2]) | phosphodiesterase activity [3] | cdG level versus naturally dispersed PAO1 (reporter strains) (PAO1 in residual biofilm [4]) | c-di-GMP on abx-promoted swarming P. aeruginosa (LC-MS) [5] |
| --- | --- | --- | --- | --- | --- | --- |
| 3,5-dimethyl-C12-βM [3,5-DiMeDβM] | > 95% | lower cdG than in original native or abx-promoted biofilm | lower cdG than in original native or abx-promoted biofilm | increase phosphodiesterase activity | lower cdG than in naturally dispersed PAO1 | increases c-di-GMP |
| 3,5-dimethyl-C12-βC [3,5-DiMeDβC] |  | lower cdG than in original native or abx-promoted biofilm | lower cdG than in original native or abx-promoted biofilm | increase phosphodiesterase activity | lower cdG than in naturally dispersed PAO1 | increases c-di-GMP |
